Test results published in PMC10360995, “Discovery of 3-((3-amino-1H-indazol-4-yl)ethynyl)-N-(4-((4-ethylpiperazin-1-yl)methyl)-3-(trifluoromethyl)phenyl)benzamide (AKE-72), a potent Pan-BCR-ABL inhibitor including the T315I gatekeeper resistant mutant” (Journal of Enzyme Inhibition and Medicinal Chemistry, 2023).

How the values were obtained:
HL-60(TB) [1] = experiment: cells; conditions: Homo sapiens
CCRF-CEM = experiment: NCI SRB anti-leukemic assay
SR = experiment: NCI SRB anti-leukemic assay
RPMI-8226 = experiment: NCI SRB anti-leukemic assay
HL-60(TB) [2] = conditions: five-dose assay
K-562 = experiment: NCI SRB anti-leukemic assay
MOLT-4 = experiment: NCI SRB anti-leukemic assay
BCR-ABL^WT = BCR-ABL^WT (Homo sapiens, UniProt P00519); experiment: BCR-ABL WT kinase inhibition assay; type: biochemical
BCR-ABL^WT, sequence (P00519 whole entry): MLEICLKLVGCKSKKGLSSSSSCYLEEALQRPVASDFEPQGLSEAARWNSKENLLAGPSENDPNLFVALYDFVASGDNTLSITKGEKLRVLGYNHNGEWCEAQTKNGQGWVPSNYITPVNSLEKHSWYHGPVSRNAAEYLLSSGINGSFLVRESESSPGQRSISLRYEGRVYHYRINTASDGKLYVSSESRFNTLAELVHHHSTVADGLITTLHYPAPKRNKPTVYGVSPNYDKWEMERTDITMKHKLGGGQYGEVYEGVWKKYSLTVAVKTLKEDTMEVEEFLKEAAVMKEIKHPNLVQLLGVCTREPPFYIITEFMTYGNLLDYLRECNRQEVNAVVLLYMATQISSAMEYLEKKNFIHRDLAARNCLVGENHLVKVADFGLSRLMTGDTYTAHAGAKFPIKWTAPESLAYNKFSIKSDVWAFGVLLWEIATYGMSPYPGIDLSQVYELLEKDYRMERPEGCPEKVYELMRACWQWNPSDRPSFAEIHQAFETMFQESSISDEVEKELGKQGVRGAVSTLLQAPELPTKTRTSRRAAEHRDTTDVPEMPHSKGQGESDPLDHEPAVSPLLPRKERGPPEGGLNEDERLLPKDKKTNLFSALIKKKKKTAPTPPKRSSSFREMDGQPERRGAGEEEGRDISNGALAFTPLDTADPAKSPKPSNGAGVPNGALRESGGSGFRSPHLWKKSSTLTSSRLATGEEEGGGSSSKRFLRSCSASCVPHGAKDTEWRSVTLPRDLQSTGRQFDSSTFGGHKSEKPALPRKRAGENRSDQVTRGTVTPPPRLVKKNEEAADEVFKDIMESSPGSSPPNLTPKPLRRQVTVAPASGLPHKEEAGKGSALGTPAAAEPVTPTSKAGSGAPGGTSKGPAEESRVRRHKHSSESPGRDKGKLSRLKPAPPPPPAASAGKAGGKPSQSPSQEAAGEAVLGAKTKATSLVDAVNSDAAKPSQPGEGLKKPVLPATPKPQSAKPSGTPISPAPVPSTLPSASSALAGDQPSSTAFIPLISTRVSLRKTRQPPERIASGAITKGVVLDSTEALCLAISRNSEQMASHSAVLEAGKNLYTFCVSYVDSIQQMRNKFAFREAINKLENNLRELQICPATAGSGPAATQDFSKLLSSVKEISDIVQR

For `CN1CCN(Cc2ccc(C(=O)Nc3cccc(C#Cc4cccc5[nH]nc(N)c45)c3)cc2C(F)(F)F)CC1` [Compound 4a], the GI50 (HL-60(TB) [1]; HL-60, read-out: GI50 HL-60(TB)) was 278 nM, the CC50 (HL-60(TB) [1]; HL-60, read-out: LC50 (half-maximal lethal concentration) HL-60(TB)) was 7330 nM and the GI50 (CCRF-CEM; Homo sapiens, CCRF-CEM, read-out: GI50 CCRF-CEM) was 1220 nM. For the same compound, the CC50 (CCRF-CEM; Homo sapiens, CCRF-CEM, read-out: LC50 (half-maximal lethal concentration) CCRF-CEM) was 8300 nM, the “TGI (total growth inhibition) CCRF-CEM” value (CCRF-CEM; five-dose assay) was 3180 nM and the “GI % CCRF-CEM” value (CCRF-CEM; single dose 10 µM) was “L (lethal effect (% GI > 100))”. For the same compound, the GI50 (SR; Homo sapiens, SR, read-out: GI50 SR) was 1100 nM, the CC50 (SR; Homo sapiens, SR, read-out: LC50 (half-maximal lethal concentration) SR) was > 100000 nM and the “TGI (total growth inhibition) SR” value (SR; five-dose assay) was 3350 nM. The GI50 (RPMI-8226; Homo sapiens, RPMI-8226, read-out: GI50 RPMI-8226) was 1220 nM, the CC50 (RPMI-8226; Homo sapiens, RPMI-8226, read-out: LC50 (half-maximal lethal concentration) RPMI-8226) was 9520 nM and the “TGI (total growth inhibition) RPMI-8226” value (RPMI-8226; five-dose assay) was 3260 nM. The “GI % RPMI-8226” value (RPMI-8226; single dose 10 µM) was “L (lethal effect (% GI > 100))”, the “TGI (total growth inhibition) HL-60(TB)” value (HL-60(TB) [2]) was 1600 nM and the GI50 (K-562; Homo sapiens, K562, read-out: GI50 K-562) was < 10 nM. The CC50 (K-562; Homo sapiens, K562, read-out: LC50 (half-maximal lethal concentration) K-562) was 6030 nM, the “TGI (total growth inhibition) K-562” value (K-562; five-dose assay) was 1020 nM and the GI50 (MOLT-4; Homo sapiens, MOLT-4, read-out: GI50 MOLT-4) was 494 nM. For the same compound, the CC50 (MOLT-4; Homo sapiens, MOLT-4, read-out: LC50 (half-maximal lethal concentration) MOLT-4) was 7570 nM, the “TGI (total growth inhibition) MOLT-4” value (MOLT-4; five-dose assay) was 2280 nM and the IC50 (BCR-ABL^WT; 10-dose duplicate, 3-fold serial dilution, 10 µM ATP) was < 0.51 nM. The “fold superior potency against BCR-ABL^WT versus lead indazole II” value (BCR-ABL^WT; relative to II) was > 300 folds.
